Laboratory results as given in article PMC12530843, “Identification of a New Interesting BAG3 Modulator Able to Disrupt Cancer‐Related Pathways” (Chemmedchem, 2025).
Entries after “also recorded” stand apart in the source; their conditions may differ.

Assays:
HeLa cells = system: HeLa cells; design: method as in PMID 29926854; details: reported value; read-out: IC50 in HeLa cell line; cited from earlier work
BAG3-BD = target: T1, BAG3-BD (Homo sapiens, UniProt O95817); assay: SPR binding on BAG3 BAG domain; details: Biacore T200, 25 °C, 1:1 model; for Kd: read-out: BAG3–BD KD ± SD
T1 construct: the BAG3 domain (BAG3‐BD) was sourced from ARETA International S.r.l; (Gerenzano, Italy); purchased ARETA International S.r.l
T1 sequence (O95817 421-498 limits assumed): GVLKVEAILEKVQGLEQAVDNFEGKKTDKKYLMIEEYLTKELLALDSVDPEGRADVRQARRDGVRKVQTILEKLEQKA
Protocol: (§1) Recombinant human BAG3 protein (Bcl2‐associated athanogene 3) was obtained from Novus Biologicals (Littleton, Colorado), while the BAG3 domain (BAG3‐BD) was sourced from ARETA International S.r.l. (Gerenzano, Italy). We used (Z)‐ethyl 2‐(5‐(3,4‐dihydroxybenzylidene)‐2,4‐dioxothiazolidin‐3‐yl)acetate (LK4), a BAG3 inhibitor previously identified by our group.^[ [13] ^] SPR spectroscopy was performed using a Biacore T200 optical biosensor with CM5 sensor chips (Cytiva, Marlborough, USA) to assess the affinity of synthesized molecules for BAG3 and BAG‐BD. BAG3 and BAG‐BD were immobilized on CM5 sensor chip using standard amine‐coupling protocol.^[ [15] ^, [42] ^, [43] ^] BAG3 protein (0.067 μg μL^−1 in 10 mM CH3COONa, pH 4.5) was immobilized at a flow rate of 10 μL min^−1, achieving a surface density of 14 kRU, while BAG3‐BD (0.38 μg μL^−1 in 10 mM CH3COONa, pH 4.5) reached a density of 4 kRU. For the experiments, BAG3 and BAG‐BD surfaces, as well as an unmodified reference surface, were prepared for simultaneous analysis. Compounds 1–10 and LK4 were initially dissolved to 10 mM in 100% DMSO, then diluted 1:20 (v/v) in PBS‐P buffer (0.2 M phosphate buffer, 27 mM KCl, 1.37 M NaCl, 0.5% surfactant P20) resulting in a final DMSO concentration of 5.0%. The compounds were injected in a concentration series (1:2 dilution, 10 different concentrations) ranging from 0 to 100 μM, using 96‐well plates. SPR experiments were conducted at 25 °C with a flow rate of 20 μL min^−1, featuring a 90 s association phase followed by a 400 s dissociation phase. Changes in mass, recorded as resonance units (RU), were used to quantify binding responses, while K D values were determined using Biaevaluation software by globally fitting the double‐referenced association and dissociation data to a 1:1 interaction model. (See Figure S43–S56, Supporting Information).

BAG3 full length = target: T2, BAG3 full length (Homo sapiens, UniProt O95817); assay: SPR binding on full-length BAG3; details: Biacore T200, 25 °C, 1:1 model; for Kd: read-out: BAG3 FULL KD ± SD
T2 construct: purchased Novus Biologicals (Littleton, Colorado)
T2 sequence (O95817 whole entry): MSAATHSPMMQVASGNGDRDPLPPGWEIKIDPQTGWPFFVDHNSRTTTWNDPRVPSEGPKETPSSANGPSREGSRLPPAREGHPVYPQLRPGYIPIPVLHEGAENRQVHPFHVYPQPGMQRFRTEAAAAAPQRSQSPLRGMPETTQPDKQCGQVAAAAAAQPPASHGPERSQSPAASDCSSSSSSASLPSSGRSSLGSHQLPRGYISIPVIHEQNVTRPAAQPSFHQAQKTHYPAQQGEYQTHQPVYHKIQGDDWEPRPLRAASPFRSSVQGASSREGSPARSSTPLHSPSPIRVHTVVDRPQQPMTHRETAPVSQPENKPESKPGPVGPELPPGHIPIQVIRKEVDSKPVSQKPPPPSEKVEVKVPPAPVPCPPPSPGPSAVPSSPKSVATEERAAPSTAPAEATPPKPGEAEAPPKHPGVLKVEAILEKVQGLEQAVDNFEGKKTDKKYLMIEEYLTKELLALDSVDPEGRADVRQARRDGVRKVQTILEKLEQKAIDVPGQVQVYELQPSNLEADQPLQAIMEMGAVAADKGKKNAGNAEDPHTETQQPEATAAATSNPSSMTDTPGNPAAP
Protocol: as §1

| Structure (SMILES) | BAG3–BD KD ± SD (BAG3-BD) | Kd (BAG3-BD) [µM] | Kd (BAG3 full length) [µM] | IC50 (HeLa cells) [µM] | BAG3 FULL KD ± SD (BAG3 full length) |
| --- | --- | --- | --- | --- | --- |
| CCOC(=O)CN1C(=O)S/C(=C\c2ccc(O)c(O)c2)C1=O [LK4, (Z)‐ethyl 2‐(5‐(3,4‐dihydroxybenzylidene)‐2,4‐dioxothiazolidin‐3‐yl)acetate] |  |  |  | > 50 |  |
| Cc1cc(C)n(-c2cccc(Cn3cc(COC(=O)c4cccc([N+](=O)[O-])c4)nn3)c2)n1 [Compound 4, (1‐(3‐(3,5‐Dimethyl‐1H‐pyrazol‐1‐yl)benzyl)‐1H‐1,2,3‐triazol‐4‐yl)methyl 3‐nitrobenzoate] | not able to bind |  |  |  | not able to bind; also recorded: No binding |
| Nc1ccc(C(=O)OCc2cn(Cc3cccc4ccccc34)nn2)cc1Br [Compound 10, (1‐(Naphthalen‐1‐ylmethyl)‐1H‐1,2,3‐triazol‐4‐yl)methyl 4‐amino‐3‐bromobenzoate] |  |  |  |  | did not show a satisfactory binding; also recorded: No binding |
| Cc1cc(C)n(-c2cccc(Cn3cc(COC(=O)c4ccc(N)c(Br)c4)nn3)c2)n1 [Compound 9, (1‐(3‐(3,5‐Dimethyl‐1H‐pyrazol‐1‐yl)benzyl)‐1H‐1,2,3‐triazol‐4‐yl)methyl 4‐amino‐3‐bromobenzoate] |  |  |  |  | did not show the ability to bind; also recorded: No binding |
| O=C(OCc1cn(Cc2cccc3ccccc23)nn1)c1cccc([N+](=O)[O-])c1 [Compound 3, (1‐(Naphthalen‐1‐ylmethyl)‐1H‐1,2,3‐triazol‐4‐yl)methyl 3‐nitrobenzoate] | not able to bind |  |  |  | not able to bind; also recorded: No binding |
| O=C(OCc1cn(COCc2ccccc2)nn1)c1cccc([N+](=O)[O-])c1 [Compound 1, (1‐((Benzyloxy)methyl)‐1H‐1,2,3‐triazol‐4‐yl)methyl 3‐nitrobenzoate] | low micromolar range | 1.87 ± 0.03 | 3.31 ± 0.18 |  | low micromolar range |

Second part, led by results:

| BAG3–BD KD ± SD (BAG3-BD) | Kd (BAG3-BD) [µM] | Kd (BAG3 full length) [µM] | Structure (SMILES) | IC50 (HeLa cells) [µM] | BAG3 FULL KD ± SD (BAG3 full length) |
| --- | --- | --- | --- | --- | --- |
|  | 6.32 ± 0.12 | 11.4 ± 2.43 | Nc1ccc(C(=O)OCc2cn(Cc3ccc4ccccc4n3)nn2)cc1Br [Compound 7, (1‐(Quinolin‐2‐ylmethyl)‐1H‐1,2,3‐triazol‐4‐yl)methyl 4‐amino‐3‐bromobenzoate] |  |  |
|  | 2.78 ± 0.88 | 24 ± 4.6 | O=C(OCc1cn(Cc2ccc3ccccc3n2)nn1)c1ccnc(Cl)c1 [Compound 6, (1‐(Quinolin‐2‐ylmethyl)‐1H‐1,2,3‐triazol‐4‐yl)methyl 2‐chloroisonicotinate] |  |  |
|  | 2.43 ± 0.09 | 12.6 ± 1.2 | O=C(OCc1cn(Cc2ccc3ccccc3n2)nn1)c1ccccc1I [Compound 8, (1‐(Quinolin‐2‐ylmethyl)‐1H‐1,2,3‐triazol‐4‐yl)methyl 2‐iodobenzoate] |  |  |
|  | 8.27 ± 0.98 | 12.5 ± 2.26 | O=C(OCc1cn(Cc2ccc3ccccc3n2)nn1)c1cccc([N+](=O)[O-])c1 [Compound 5, (1‐(Quinolin‐2‐ylmethyl)‐1H‐1,2,3‐triazol‐4‐yl)methyl 3‐nitrobenzoate] |  |  |
